# Source: PMC8157578 (Antioxidants, 2021)
# Key:
# [1] = test system: HeLa cells; assay: Labile iron pool (LIP) determination with calcein-AM in iron-overloaded HeLa cells, flow cytometry; type: cell-based, human; settings: 50 μM compound alone, no iron
# [2] = test system: HeLa cells; assay: Auto-fluorescence of HeLa cells after incubation with compound (cell uptake); type: cell-based, human; settings: HeLa cells incubated two hours, auto-fluorescence Ex ~330 nm, Em ~450 nm
# Description: Subsequently, cells were washed and collected by centrifugation, the fluorescence of cells (105) was monitored by Thermo Scientific Varioskan Flash (Thermo Fisher scientific, USA) ***Significant difference from iron-overloaded group, p < 0.001.
# [3] = test system: HeLa cells; assay: Labile iron pool (LIP) determination with calcein-AM in iron-overloaded HeLa cells, flow cytometry; type: cell-based, human; settings: 15 min
# Protocol: HeLa cells (10^6/mL) were loaded by incubation with 20 μM Fe(II) for 2 h at 37 °C. Subsequently, cells were collected by centrifugation (1000 rpm for 5 min) and incubated with 0.5 μM calcein-AM for 15 min at 37 °C in a D’hanks buffer of pH 7.4. Cells were then washed twice by D’hanks buffer (pH 7.4) and incubated with or without CAPE and its analogues. The fluorescence was monitored by both flow cytometry (BD FACS Caliber) and a CLSM (Leica TCS SP). The experiment was repeated three times.
# Figure 3 Effect of CAPE and its analogues on the LIP level in iron-overloaded cells, as measured by flow cytometry (A–D). HeLa cells were pretreated with 20 μM Fe(II) for 2 h and then incubated with calcein-AM. After 15 min, cells were washed and incubated with or without CAPE and its analogues for 15 min. The fluorescence intensity of cells was measured by flow cytometry. Significant differences from the iron-overloaded group are marked with * p < 0.05, ** p < 0.01, and *** p < 0.001. The experiment was repeated three times.
# [4] = Cyclic voltammetry of Fe(III) chelated by ligand; type: physicochemical; settings: 100 mM PB pH 7.4, SCE reference, 2 mV/s; Fe(III) alone approximately −0.65 V
# Protocol: CV was performed in 100 mM PB (pH 7.4) on a Princeton Applied Research (VersaSTAT3) potentiostat with a Pt wire as the counter electrode, a saturated calomel electrode (SCE) as the reference electrode, and a glassy carbon electrode (5 mm in diameter) as the working electrode. The scan rate was 2 mV/s.
# [5] = test system: plasmid pBR322 DNA; assay: Plasmid DNA strand breakage induced by Fe(II)–H2O2, agarose gel electrophoresis; type: biochemical; settings: ratio-dependent
# Protocol: (§1) Plasmid DNA agarose gel electrophoresis was employed to investigate protective effect of CAPE and its analogues against DNA strand breakage induced by an iron-mediated system. For experimental procedure details, please refer to the Supplementary Materials.
# (§2) 2.1 Immunofluorescence analysis of intracellular γ-H2AX generation in Hela cells
# (§3) Fixed cells were permeabilized with 0.25% Triton-X100 in PBS for 10 min and blocked in 10%
# (§4) normal goat serum, 0.1% tween 20 in PBS for 1 hour. The cells were incubated with primary
# (§5) monoclonal antibody, γ-H2AX (Ser139, 20E3, Rabbit, mAb #9718) (1:600) overnight at 4°C, and then
# (§6) stained secondary antibodies, anti-rabbit Alexa-488 and anti-mouse (Cell Signaling Technology) for
# (§7) 1 hour. After Hoechst 33342 (10 μg/mL) staining for 2 min, dishes were mounted in ProLong™ Gold
# (§8) Antifade Mountant (Invitrogen™) and stored at 4°C in the dark before confocal laser-scanning by
# (§9) Broadband Confocal Leica TCS SP5. The CLSM images were obtained with the following excitation
# (§10) respectively. Cells were washed 3 times with PBS (200 μL/well) at intervals. […]
# ESR spectra were recorded at room temperature in a Bruker ESR 300 spectrometer. […]
# The consumption of O2 was measured by Orion 3 dissolved oxygen meter (Thermo Scientific, […]
# Corona Needle current was 3000 nA. The size of data points was recorded in 4 M format. […]
# [6] = test system: plasmid pBR322 DNA; assay: Plasmid DNA strand breakage induced by Fe(III)–citrate/ascorbate/H2O2, agarose gel electrophoresis; type: biochemical; settings: 20 μM Fe(III)–citrate, 10 μM ascorbate, 200 μM H2O2
# Protocol: as §1
# Figure 4 Protective effect of CAPE and its analogues against Fe(III)–citrate–ascorbate–H2O2-induced DNA damage. […] The reaction mixture contained 20 μM Fe(III)–citrate, 10 μM ascorbate, and 200 μM H2O2, as well as the indicated concentrations of CAPE and its analogues. The experiments were repeated three times, and only typical images are presented. […]
# The experiments were conducted via incubation of plasmid pBR322 DNA (5 μg/mL) at 37 °C for
# 30 min in Chelex-treated HEPES buffer (100 mM, pH 7.4) with the iron-containing systems, in the
# absence or presence of the indicated concentrations of CAPE and its analogues. […]
# [7] = 1-octanol/phosphate buffer partitioning, shake-flask method; type: physicochemical; settings: 1-octanol / 100 mM phosphate buffer pH 7.4, shake-flask
# [8] = test system: HeLa cells; assay: Immunofluorescence analysis of intracellular γ-H2AX generation in iron-overloaded HeLa cells (with H2O2); type: cell-based, human; settings: Fe(II)-H2O2 alone 2.86±0.64
# Protocol: The immortalized human cervical carcinoma HeLa cell line used in this study was obtained from the Cell Resource Center, Peking Union Medical College. The cell line was checked to be free of mycoplasma contamination by PCR and culture. Its species origin was confirmed with PCR. The identity of the cell line was authenticated with STR profiling (FBI, CODIS). HeLa cells were cultured in a DMEM medium (4 mM L-glutamine, 4500 mg/L glucose, and no sodium pyruvate) with 10% fetal bovine serum (FBS) and 1% penicillin–streptomycin at 37 °C under a 5% CO2 atmosphere.
# HeLa cells (10^4/well) were loaded by incubation with 20 μM Fe(II) for 2 h at 37 °C. […] For a detailed experimental procedure, please refer to the Supplementary Materials and our previous report. The experiment was repeated three times. The observation of the fluorescence of γ-H2AX in HeLa cells was conducted with a confocal laser scanning microscope (CLSM) (Leica TCS SP). Thirty cells in each group were randomly selected in different microscopic fields for quantitative detection. In detail, each well was equally divided into nine fields and numbered sequentially from the top right corner. Four fields were randomly selected according to a random number table. Thirty cells were then randomly selected from these four fields. All images were analyzed blind regarding exposure parameters, which were coded by one person and read by another who was blinded to the code. The fluorescence intensity of the γ-H2AX signal on selected images was automatically analyzed using the Image-J software. The Statistical Product and Service Solutions (SPSS 21) program was employed to analyze the data through ANOVA. Significant difference from iron-overloaded group are marked with * p < 0.05, ** p < 0.01, and *** p < 0.001.
# as §2, §3, §4, §5, §6, §7, §8, §9, §10
# [9] = ESR spin-trapping (DMPO) of •OH generated by Fe(III)–citrate–ascorbate–H2O2; type: biochemical; settings: 100 μM Fe(III)–citrate, 100 μM ascorbate, 1 mM H2O2
# Protocol: The basic system used in this study consisted of Fe(III)/Fe(II), ascorbate, H2O2, and the spin trapping agent DMPO (100 mM) in 20 mM HEPES (pH 7.4) with or without CAPE and its analogues.
# The reaction mixture contained 100 μM Fe(III)–citrate, 100 μM ascorbate, and 1 mM H2O2, as well as the indicated concentrations of CAPE and its analogues. The experiments were repeated three times, and only typical spectra are presented.
# 2.3 Electron spin resonance (ESR) spin-trapping studies
# spectrometer parameters were as follows: scan range, 100 G; field set, 3470 G; time constant, 200 ms;
# scan time, 100 s; modulation amplitude, 1.0 G; modulation frequency, 100 kHz; receiver gain,
smiles,measurement,setting,value
"O=C(/C=C/c1ccc(O)c(O)c1)OCCc1ccccc1 [CAPE, Caffeic acid phenethyl ester]",Fluorescence intensity of calcein-AM (LIP level),[1],0.97±0.03 Fold of Control
same,"Fluorescence inside the cells after incubation (crossing the cell membrane), in words",[2],significantly increase
same,Fluorescence intensity of calcein-AM (LIP level),"[3]; 20 μM Fe(II) + 2 μM compound, Fe(II) alone 0.64±0.04",0.65±0.00 Fold of Control
same,Fluorescence intensity of calcein-AM (LIP level),"[3]; 20 μM Fe(II) + 20 μM compound, Fe(II) alone 0.64±0.04",0.73±0.02 Fold of Control
same,Fluorescence intensity of calcein-AM (LIP level),"[3]; 20 μM Fe(II) + 50 μM compound, Fe(II) alone 0.63-0.64",0.89±0.04 Fold of Control
same,Reduction potential of Fe(III) chelated by compound,[4],−1.00 V
same,"Inhibition of Fe(II)–H2O2-induced DNA strand breaks, in words",[5],significantly inhibited
same,"Protective effect against Fe(III)–citrate–ascorbate–H2O2-induced DNA damage, in words",[6],significantly inhibited
same,Concentration range with the stated inhibition of Fe(III)-citrate-Vc-H2O2 induced DNA damage,"[6]; CAPE significantly, CA slightly",40 to 200 µM
same,LogKow,[7],2.01 ± 0.02
same,Fluorescence intensity of γ-H2AX,[8]; Fe(II)-H2O2 + 2 μM compound,3.07±0.54 Fold of Control
same,Fluorescence intensity of γ-H2AX,[8]; Fe(II)-H2O2 + 10 μM compound,2.71±0.32 Fold of Control
same,Fluorescence intensity of γ-H2AX,[8]; Fe(II)-H2O2 + 20 μM compound,1.66±0.46 Fold of Control
same,Fluorescence intensity of γ-H2AX,[8]; Fe(II)-H2O2 + 50 μM compound,1.26±0.23 Fold of Control
same,"Inhibitory effect against Fe(III)-citrate-Vc-H2O2 induced •OH generation, in words",[9],completely inhibited
same,Concentration with the stated inhibition of Fe(III)-citrate-Vc-H2O2 induced •OH generation,"[9]; CAPE completely, CA significantly",200 µM
